Experimental data taken from article PMC12858405, “Ideal efficacy photoswitching for chromocontrol of TRPC4/5 channel functions in live tissues” (Nature Chemical Biology, 2026).

Legend:
[1] = target: T1, heteromeric TRPC5:TRPC1 (Homo sapiens, UniProt Q9UL62); parameters: method as in earlier work; settings: supplement cites it as ref 8; cited from earlier work
T1 construct: expressed in transfected cells; host or cells: HEK293, transiently transfected

[2] = Stability in DTT-containing buffers (HPLC analysis); assay type: physicochemical; settings: confirmed by HPLC analysis
Excerpt: Müller, Niemeyer, et al., Schaefer & Thorn-Seshold 2025: Ideal Efficacy Photoswitching of TRPC4/5 in Tissue 1.4 Supplementary Note 4: Structural Biology and TRP Selectivity
We prepared and acquired TRPC5:E/Z-AzHC samples in one lab, and TRPC4:E/Z-AzPico independently in another, which was useful for several plausibility checks. (1) There are additional lipid densities in the pockets that are present in both TRPC4 and TRPC5, and the changes to the lipid densities in the EM maps between E and Z isomers are similar in TRPC4 and TRPC5 as well: so these changes are not dependent on protein, nature of amphipol used, or lab in which the data were obtained/processed, but are rather inherent features of the system. (2) The positions of the distal rings which are much less-well-resolved than the rest of the ligand, were independently best aligned for the E and Z isomers, and in each case found to be Z-buried vs. E-projected, which gives more confidence in this structure-based analysis. (3) Identical deleterious effects of DTT were found in each lab, and removing it removed those problems.
1.4.1 Detailed Commentary: hTRPC5:E/Z-AzHC […]
We determined high-resolution structures of hTRPC5:(E)-AzHC (2.60 Å) and hTRPC5:(Z)-AzHC (2.90 Å) without applying symmetry (Fig. 3; Supplementary Fig. 4-5 and 15-18; Supplementary […]

T1 sequence (Q9UL62 whole entry): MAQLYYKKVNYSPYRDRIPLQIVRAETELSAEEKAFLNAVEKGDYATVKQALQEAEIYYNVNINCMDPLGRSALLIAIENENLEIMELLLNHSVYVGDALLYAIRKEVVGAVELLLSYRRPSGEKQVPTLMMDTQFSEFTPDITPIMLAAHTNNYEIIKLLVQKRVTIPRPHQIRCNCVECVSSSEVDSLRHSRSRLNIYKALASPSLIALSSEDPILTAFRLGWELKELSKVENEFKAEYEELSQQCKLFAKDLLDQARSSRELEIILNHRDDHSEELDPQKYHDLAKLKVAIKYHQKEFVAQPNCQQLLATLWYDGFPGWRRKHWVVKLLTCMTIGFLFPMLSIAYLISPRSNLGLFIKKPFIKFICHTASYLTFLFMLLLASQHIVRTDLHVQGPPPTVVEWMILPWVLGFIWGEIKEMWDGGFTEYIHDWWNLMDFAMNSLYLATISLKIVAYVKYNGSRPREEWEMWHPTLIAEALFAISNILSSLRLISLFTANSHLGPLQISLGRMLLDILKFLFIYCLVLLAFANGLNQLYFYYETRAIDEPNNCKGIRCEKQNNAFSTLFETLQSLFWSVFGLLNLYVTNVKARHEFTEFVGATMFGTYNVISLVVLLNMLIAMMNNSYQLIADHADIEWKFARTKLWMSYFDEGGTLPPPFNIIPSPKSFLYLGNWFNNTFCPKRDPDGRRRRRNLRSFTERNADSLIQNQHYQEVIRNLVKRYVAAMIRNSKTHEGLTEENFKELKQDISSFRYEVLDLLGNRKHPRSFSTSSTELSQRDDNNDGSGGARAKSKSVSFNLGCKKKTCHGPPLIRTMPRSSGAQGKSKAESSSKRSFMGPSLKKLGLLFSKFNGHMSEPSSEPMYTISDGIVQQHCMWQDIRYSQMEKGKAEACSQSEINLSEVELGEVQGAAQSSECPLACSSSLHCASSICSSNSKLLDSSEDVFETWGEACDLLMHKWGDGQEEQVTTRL
T1 sequence (P48995 whole entry partner): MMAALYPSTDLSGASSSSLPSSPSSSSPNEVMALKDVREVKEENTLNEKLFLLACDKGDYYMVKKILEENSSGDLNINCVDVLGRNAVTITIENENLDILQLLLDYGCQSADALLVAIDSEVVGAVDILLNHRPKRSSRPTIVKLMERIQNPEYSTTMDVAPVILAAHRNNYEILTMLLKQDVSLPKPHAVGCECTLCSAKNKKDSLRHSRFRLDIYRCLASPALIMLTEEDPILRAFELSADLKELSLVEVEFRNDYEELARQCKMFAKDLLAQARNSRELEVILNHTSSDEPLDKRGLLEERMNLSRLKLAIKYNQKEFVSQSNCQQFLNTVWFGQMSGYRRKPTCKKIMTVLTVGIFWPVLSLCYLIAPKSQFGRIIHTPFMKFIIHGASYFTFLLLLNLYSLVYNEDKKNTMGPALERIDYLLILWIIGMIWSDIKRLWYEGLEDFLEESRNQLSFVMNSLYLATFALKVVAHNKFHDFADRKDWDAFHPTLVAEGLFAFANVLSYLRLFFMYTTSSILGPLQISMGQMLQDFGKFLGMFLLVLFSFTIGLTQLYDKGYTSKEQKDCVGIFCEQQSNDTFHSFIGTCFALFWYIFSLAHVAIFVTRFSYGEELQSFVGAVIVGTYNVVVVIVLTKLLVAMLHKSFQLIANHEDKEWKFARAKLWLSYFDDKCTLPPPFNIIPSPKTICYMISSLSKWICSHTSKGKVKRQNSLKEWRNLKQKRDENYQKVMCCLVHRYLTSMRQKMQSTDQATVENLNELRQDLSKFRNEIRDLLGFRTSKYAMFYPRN

Stability in DTT-containing buffers [2]	SMILES	Activation of heteromeric TRPC1:TRPC5 [1]
	Cn1c(=O)n(CCCO)c(=O)c2c1nc(Oc1ccc(Cl)c(OC(F)(F)F)c1)n2Cc1ccc(Cl)cc1 [AM237, reference compound]	does not activate
degrades	Cn1c(=O)n(CCCO)c(=O)c2c1nc(Oc1ccc(N=Nc3ccccc3)c(Cl)c1)n2Cc1ccc(Cl)cc1 [AzHC]	
